Reference: patent US20090306207A1, “Treatment of Drug-Resistant Proliferative Disorders” (priority 2005, published 2009)

Legend:
[1] = tested on: 32Dcl3 cells transfected to express wild-type or imatinib-resistant forms of BCR-ABL; assay: Growth inhibition of the panel of cells expressing wild-type or imatinib-resistant forms of BCR-ABL; type: cell-based, murine
Description: (§2) The expression of the BCR-ABL proteins was determined by Western blot and kinase assays.
(§3) The total number of viable cells was determined by trypan blue exclusion at 72 hours post-treatment. The percent viable cells compared to vehicle-treated controls was determined.
(§4) The wild type comprises 32Dcl3.BCR-ABL cells that ectopically expressed the wild-type p210^BCR-ABL oncoprotein. The total number of viable cells was determined by trypan blue exclusion at 72 hours post-treatment. The percent viable cells compared to vehicle-treated controls was determined.

[2] = tested on: 32Dcl3 cells expressing BCR-ABL Y253F; assay: Cell viability (trypan blue exclusion), BCR-ABL Y253F cells
Description: (§5) Mutations corresponding to those published in the literature (Shah et al., Oncogene, 22, 7389-7395 (2003)) were introduced into the bcr-abl cDNA, which was then introduced into actively proliferating 32Dcl3 cells (Rovera et al., Oncogene 1, 29-35 (1987)) according to the following procedure.
as §2
(§6) Transfectants were selected in the absence of IL-3.
as §3, §4

normal bone marrow cells = assay: Hematopoietic colony formation assay; type: in vivo, CD-1 mice; settings: 100 mg/kg intravenous; bone marrow cells extracted after 24 hrs
Description: To examine the effects of Compound 1 on normal hematopoietic cell population in vivo, a dose of 100 mg/kg of this compound in normal saline (or saline alone as a control) was injected intravenously (tail vein injection) into CD-1 mice (10 animals per group). The effect on the in vitro hematopoietic colony formation of normal bone marrow cells derived from these mice was determined 24 hrs following administration. Bone marrow cells were extracted from the mice after 24 hrs and 2×10^5 cells were plated on methylcellulose containing appropriate cytokines for lineage specific colony formation. Colonies were counted after 5 to 14 days of incubation.

[3] = tested on: 32Dcl3 cells expressing BCR-ABL M244V; assay: Cell viability (trypan blue exclusion), BCR-ABL M244V cells; type: cell-based, murine; settings: Mus musculus, 72 hours
[4] = tested on: 32Dcl3.BCR-ABL cells expressing wild-type p210 BCR-ABL; assay: Cell viability (trypan blue exclusion), cells expressing wild-type BCR-ABL; type: cell-based, murine; settings: for GI50: Mus musculus, 72 hours
Description: (§1) Cell viability was then determined by trypan blue exclusion.
Cells expressing the wild-type p210^BCA-ABL oncoprotein (32Dcl3.BCR-ABL) or the BCR-ABL mutations G250E, T315I or M351T, were incubated with varying concentrations of Compound 4 ((E)-1-(2-(4-bromobenzylsulfonyl)vinyl)-2,4-difluorobenzene).

[5] = tested on: 32Dcl3 cells expressing BCR-ABL Q252H; assay: Cell viability (trypan blue exclusion), BCR-ABL Q252H cells; type: cell-based, murine; settings: 72 hours
[6] = tested on: 32Dcl3 cells expressing BCR-ABL E255K; assay: Cell viability (trypan blue exclusion), BCR-ABL E255K cells
Description: as §2, §6, §3, §4

[7] = tested on: 32Dcl3 cells expressing BCR-ABL H396P; assay: Cell viability (trypan blue exclusion), BCR-ABL H396P cells; type: cell-based, murine; settings: Mus musculus, 72 hours
[8] = tested on: 32Dcl3 cells expressing BCR-ABL E255V; assay: Cell viability (trypan blue exclusion), BCR-ABL E255V cells
Description: as §5, §2, §6, §3, §4

[9] = tested on: 32Dcl3 cells expressing BCR-ABL Y253H; assay: Cell viability (trypan blue exclusion), BCR-ABL Y253H cells; type: cell-based, murine; settings: Mus musculus, 72 hours
CML K562 cells = assay: Cell viability (trypan blue exclusion), K562 cells; type: cell-based
Description: K562 cells were maintained in RPMI (Roswell Park Memorial Institute) medium supplemented with 10% FBS and 1 U/ml penicillin-streptomycin.
as §1

[10] = tested on: 32Dcl3 cells expressing BCR-ABL F359V; assay: Cell viability (trypan blue exclusion), BCR-ABL F359V cells; type: cell-based, murine; settings: Mus musculus, 72 hours
[11] = tested on: 32Dcl3 cells expressing BCR-ABL M351T; assay: Cell viability (trypan blue exclusion), BCR-ABL M351T cells; type: cell-based, murine; settings: Mus musculus, 72 hours
[12] = tested on: 32Dcl3 cells expressing BCR-ABL F317L; assay: Cell viability (trypan blue exclusion), BCR-ABL F317L cells; type: cell-based, murine; settings: Mus musculus, 72 hours
32D/BCR-ABL^T315I cells = assay: In vivo growth of cells expressing imatinib-resistant BCR-ABL T315I (blood smears); set-up: species or system athymic nude mice; settings: 100 mg/kg daily intraperitoneal; days 7 and 14; compared to vehicle and imatinib treated groups
Description: Blood smears on the treated mice were performed 7 and 14 days after the start of treatments. One drop of blood from each mouse was smeared onto glass slides, air dried and stained with modified Wright stain (Sigma). The T315I cells in the blood were easily visible due to their blue staining and size difference. The number of T315I cells per 10 fields was determined by counting 10 fields of view containing an equal density of red blood cells using a 40× objective on an upright Olympus microscope.

[13] = tested on: 32Dcl3 cells expressing BCR-ABL T315I; assay: Cell viability (trypan blue exclusion), BCR-ABL T315I cells
Description: as §5, §2, §6, §3, §4

[14] = tested on: 32Dcl3 cells expressing BCR-ABL L387M; assay: Cell viability (trypan blue exclusion), BCR-ABL L387M cells
Description: as §2, §6, §3, §4

[15] = tested on: 32Dcl3 cells expressing BCR-ABL G250E; assay: Cell viability (trypan blue exclusion), BCR-ABL G250E cells
Description: as §5, §2, §6, §3, §4

[16] = tested on: 32Dcl3 cells expressing BCR-ABL F311L; assay: Cell viability (trypan blue exclusion), BCR-ABL F311L cells
Description: as §5, §2, §6, §3, §4

[17] = tested on: 32Dcl3 cells expressing BCR-ABL E355G; assay: Cell viability (trypan blue exclusion), BCR-ABL E355G cells; type: cell-based, murine; settings: Mus musculus, 72 hours
[18] = tested on: 32Dcl3 cells expressing BCR-ABL H396R; assay: Cell viability (trypan blue exclusion), BCR-ABL H396R cells; type: cell-based, murine; settings: Mus musculus, 72 hours
[19] = Toxicity in treated mice (body weight, signs); settings: 100 mg/kg daily intraperitoneal for 10 days
Description: Female athymic nude mice (ncr/ncr) were injected intravenously with 1×10^6 32Dcl3 cells expressing the mutant BCR-ABL^T315I via the tail vein.
Body weights of the test animals were taken every two days.

O=S(=O)(/C=C/c1ccc(F)cc1F)Cc1ccc(Br)cc1 [Compound 4, (E)-1-(2-(4-bromobenzylsulfonyl)vinyl)-2,4-difluorobenzene]
sensitivity to growth-inhibitory activity ([1]; wild-type, G250E, T315I or M351T, varying concentrations, 72 hours): sensitive

COc1cc(OC)c(/C=C/S(=O)(=O)Cc2ccc(OC)c(NC(C)C(=O)O)c2)c(OC)c1 (centres unmarked) [Compound 1, (E)-2-(5-((2,4,6-trimethoxystyrylsulfonyl)methyl)-2-methoxyphenylamino) propanoic acid]
LD50 ([2]; 72 hours): 6.8 nM | colony formation of the erythroid, myeloid or lymphoid lineages (normal bone marrow cells): No reduction in colony formation | GI50 [3]: 7.8 nM | LD50 (loss of viability) ([4]; 32Dcl3.BCR-ABL cells, 72 hours incubation): 10 to 15 nM | GI50 ([4]; None (wt), trypan blue exclusion): 10 nM | LD50 [5]: 7.0 nM | LD50 ([6]; E255K, 72 hours): 8.4 nM | GI50 [7]: 7.9 nM | LD50 ([8]; E255V, 72 hours): 7.8 nM | GI50 [9]: 7.8 nM | concentration inhibiting proliferation, fold less than that shown for imatinib (CML K562 cells; BCR-ABL+ cell lines (K562 and 32Dcl3.BCR-ABL)): 10 fold | LD50 (loss of viability) (CML K562 cells; K562 cells, 72 hours incubation): 10 to 15 nM | GI50 [10]: 7.1 nM | GI50 [11]: 7.8 nM | GI50 [12]: 7.8 nM | number of T315I cells in the blood (32D/BCR-ABL^T315I cells): significantly reduced | LD50 ([13]; T315I, 72 hours): 7.5 nM | LD50 ([14]; L387M, 72 hours): 7.1 nM | LD50 ([15]; G250E, 72 hours): 5.9 nM | sensitivity to growth inhibitory activity ([1]; all transfected cell lines, including T315I mutant, various concentrations, 72 hours): extremely sensitive | LD50 ([16]; F311L, 72 hours): 6.8 nM | GI50 [17]: 7.8 nM | GI50 [18]: 6.8 nM

Cc1ccc(NC(=O)c2ccc(CN3CCN(C)CC3)cc2)cc1Nc1nccc(-c2cccnc2)n1 [imatinib, Imatinib]
loss of bodyweight [19]: > 20%

COc1cc(OC)c(/C=C/S(=O)(=O)Cc2ccc(OC)c(NCC(=O)O)c2)c(OC)c1 [Compound 2, (E)-2-(5-((2,4,6-trimethoxystyrylsulfonyl)methyl)-2-methoxyphenylamino) acetic acid]
sensitivity to growth-inhibitory activity ([1]; cell lines listed in Table 2, 250 nM): sensitive

COc1cc(OC)c(/C=C/S(=O)(=O)Cc2ccc(OC)c(NC(C)(C)C(=O)O)c2)c(OC)c1 [Compound 3, (E)-2-(5-((2,4,6-trimethoxystyryl-sulfonyl)methyl)-2-methoxyphenylamino)-2-methylpropanoic acid]
GI50 ([2]; 72 hours): 70 nM | GI50 ([2]; Mus musculus, 72 h): 40 nM | GI50 ([4]; Wild-type): 40 nM | GI50 ([5]; Mus musculus): 40 nM | GI50 ([6]; Mus musculus, 72 h): 50 nM | GI50 [7]: 50 nM | GI50 ([8]; Mus musculus, 72 h): 50 nM | GI50 [9]: 30 nM | GI50 [10]: 70 nM | GI50 [11]: 60 nM | GI50 [12]: 60 nM | GI50 ([13]; Mus musculus, 72 h): 60 nM | GI50 ([14]; Mus musculus, 72 h): 50 nM | GI50 ([15]; Mus musculus, 72 h): 25 nM | sensitivity to growth-inhibitory activity ([1]; cell lines listed in Table 3, various concentrations, 72 hours): sensitive | GI50 ([16]; Mus musculus, 72 h): 70 nM | GI50 [17]: 50 nM | GI50 [18]: 60 nM
